# Measured values from patent US12109301B2, “Formulations, methods, and systems for treating genitourinary conditions” (Massachusetts Institute of Technology, priority 2017, dated 2024).
# Read-outs that look alike come from different tables or passages of the source.
# Tests used:
# [1] = test system: human ureteral smooth muscle cell (hUSMC); assay: High throughput screening (HTS) of hUSMC relaxation (p-MLC vs unphosphorylated MLC, single-cell analysis); assay type: cell-based; conditions: for relaxation of smooth muscle cells within a cell population: 8 hour exposure; for relaxation of smooth muscle (in words): hUSMC, prolonged exposure (8 hours)
# Source text: An HTS test was developed to quantify the contractile state of a human ureteral smooth muscle cell (hUSMC). Quantification of hUSMC relaxation was achieved by performing single-cell analysis using a computer vision (CellProfiler, Broad Institute, MA) approach that related each cell's fluorescence intensity to its state of muscle relaxation (comparing phosphorylated myosin with unphosphorylated myosin).
# Primary hUMSCs were harvested from patients and cultured. There were about 10,000 cells per well, and 100 μL of media per well. Each well represented one experiment, and 250 nL of drug per well was delivered with DMSO (0.25% DMSO by volume).
# In the test of this example, single cell analysis was performed on each cell (identified via computer vision) after exposure to various drugs which enable relaxation in order to correlate each cell's contractile state to the therapeutic compound, exposure time, and dose.
# These correlations were determined by analyzing the fluorescent intensity of smooth muscle cells, which is related to the contractile state of the muscles. When a smooth muscle cell is signaled to contract, phosphorylation of myosin light-chain (p-MLC) occurs, which is a biomarker of muscle contraction. Conversely, when smooth muscle is left unphosphorylated (MLC), muscle relaxation occurs. Therefore, smooth muscle contraction can be computed from the proportion of p-MLC to unphosphorylated-MLC.
# The tested agents included those in the following table.
# [2] = test system: hUSMCs; assay type: cell-based; conditions: human
# [3] = test system: whole porcine ureters; assay: Bench top ex vivo model, phenylephrine-stimulated contractions, intraluminal delivery; set-up: species or system pig
# Description: An ex vivo bench top model was designed to permit the testing of whole ureteral segments. Flow through the ureteral segments was regulated, and ranged from 0.25 mL/minute to 60 mL/minute. […] The intraluminal reservoirs contained either preheated saline buffer or dilutions of any candidate therapeutic agent.
# The pounds per square inch (PSI) pressure readings were obtained using a fiber-optic pressure catheter.
# For this test, a ureter was prepared through intraluminal delivery of saline (Krebs-Henseleit Buffer) (BUF) only (region “i”). The experiment then was initiated and phenylephrine [10 mM] was added to the Krebs infusion to stimulate baseline peristaltic contractions seen in patients with urinary stones (region “ii”). […] [1 μM]
# Cumulative ureteral contractions were plotted over the course of the entire experiment, and are depicted at FIG. 8. For this test, a ureter was prepared through intraluminal delivery of saline (BUF) only (region “i”). The experiment was initiated and phenylephrine [10 mM] was added to the Krebs infusion to stimulate baseline peristaltic contractions seen in patients with urinary stones (region “ii”).
# [4] = Description: A commercially available surgical lubricant (SURGILUBE® lubricant) was combined with a surfactant. The surfactant was Polysorbate 20, and 0.6 mL of the Polysorbate 20 was added to 19.4 mL of the surgical lubricant.
# However, more surfactant may be added to increase drug concentration, e.g., up to about 500 μM.
# [5] = test system: hUSMCs; conditions: for Percentages of Cells that Remained Contracted After Treatment: Nifedipine 0 μM
# [6] = test system: human ureteral smooth muscle cell (hUSMC); assay: Cell viability of hUSMC in the HTS of Example 1
# Description: Eight-point dosing curves were performed starting at 25 μM. […] The results were collected from three separate screening runs across three unique primary hUSMC lines (derived from three separate patients).
# These relaxation percentages were derived after an 8 hour exposure.
structure (smiles),measurement,setting,value
C[C@@H](N)[C@H]1CC[C@H](C(=O)Nc2ccncc2)CC1 [Y-27632],relaxation of smooth muscle cells within a cell population,[1]; 3.13 μM,20%
same,"hUSMC population relaxed (greatest effect, FIG. 1)",[1]; after an 8 hour exposure,about 40%
same,relaxation of smooth muscle (in words),[1]; listed as ROCK Y-27632,significant relaxation of smooth muscle
same,relaxation of smooth muscle (in words),[1]; listed as Y-27632 (ROCK),relatively significant cell relaxation
same,Percentages of Cells that Retained Viability,[2]; 3.13 μM,110%
same,Percentages of Cells that Retained Viability,[2]; 25 μM,100%
same,Percentages of Cells that Retained Viability,[2]; 50 μM,95%
same,reduction in contractile frequency,[3]; 10 μM intraluminally,3 ×
same,contractile activity of ureter (in words),"[3]; 10 μM intraluminally, with 10 mM phenylephrine, listed as Y27632 (ROCK)",rapid relaxation of the ureter
same,frequency of peristaltic activity (in words),"[3]; 10 μM with 10 mM phenylephrine, region iii",significant decrease in frequency
same,reduction in the slope of linear regression of cumulative contractions,"[3]; 10 μM, region iii vs other regions of FIG. 8",≥ 3 ×
same,effect after removal from the infusion (region iv),[3]; phenylephrine 10 mM and saline buffer continued,the effects were reversed
same,actual drug retention in the surgical lubricant/surfactant mixture,[4],about 200 μM
same,relaxation,"[5]; 25 μM alone, 8 hour exposure",about 45%
same,Percentages of Cells that Remained Contracted After Treatment,[5]; ROCK 1.56 μM,81%
same,Percentages of Cells that Remained Contracted After Treatment,[5]; ROCK 3.13 μM,71%
same,Percentages of Cells that Remained Contracted After Treatment,[5]; ROCK 6.25 μM,67%
same,Percentages of Cells that Remained Contracted After Treatment,[5]; ROCK 12.50 μM,59%
same,Percentages of Cells that Remained Contracted After Treatment,[5]; ROCK 25.00 μM,54%
same,Percentages of Cells that Remained Contracted After Treatment,[5]; ROCK 50.00 μM,50%
same,Percentages of Cells that Remained Contracted After Treatment,[5]; ROCK […],86%
CCOc1ccccc1OCCN[C@H](C)Cc1ccc(OC)c(S(N)(=O)=O)c1 [Tamsulosin],cell population relaxation,[1]; 6.25 μM or greater,~20%
same,relaxation of smooth muscle (in words),[1],demonstrated efficacy at certain doses
CCCc1nc(C)c2c(=O)[nH]c(-c3cc(S(=O)(=O)N4CCN(CC)CC4)ccc3OCC)nn12 [Vardenafil],cell population relaxation,[1]; 1.56 μM or greater,~20%
Cc1ccc(-c2cc(C(F)(F)F)nn2-c2ccc(S(N)(=O)=O)cc2)cc1 [Celecoxib],relaxation of smooth muscle cells within a cell population,[1]; 12.5 μM,20%
same,relaxation of smooth muscle cells within a cell population,[1]; 25 μM,30%
same,toxicity to the tested cells (false hit),[6],toxicity killed the tested cells
